Experimental data reported in publication PMC8550792, “Evolution of kinase polypharmacology across HSP90 drug discovery” (Cell Chemical Biology, 2021).

Experiments:
Experiment in all cases: biochemical
Assay type in all cases: biochemical
[1] = target: T1, 382 unique human kinases (Homo sapiens, UniProt P00519, T315I); settings: ABL1 (T315I), 10 uM; for remaining activity at 10 µM: read-out: % Enzyme Activity (relative to DMSO controls)
T1 construct: purchased Reaction Biology (HotSpot contract assay)

[2] = target: T2, 382 unique human kinases (Homo sapiens, UniProt P00533, L861Q); settings: kinase EGFR (L861Q), compound 10 uM; for remaining activity at 10 µM: read-out: % Enzyme Activity (relative to DMSO controls)
T2 construct: purchased Reaction Biology (HotSpot contract assay)

[3] = target: T3, 382 unique human kinases (Homo sapiens, UniProt P10721, V654A); settings: kinase c-Kit (V654A), compound 10 uM; for remaining activity at 10 µM: read-out: % Enzyme Activity (relative to DMSO controls)
T3 construct: purchased Reaction Biology (HotSpot contract assay)

[4] = target: T4, 382 unique human kinases (Homo sapiens, UniProt P41240); settings: CSK, 10 uM; for remaining activity at 10 µM: read-out: % Enzyme Activity (relative to DMSO controls)
T4 construct: purchased Reaction Biology (HotSpot contract assay)

[5] = target: T5, 382 unique human kinases (Homo sapiens, UniProt P42680); settings: TEC, 10 uM; for remaining activity at 10 µM: read-out: % Enzyme Activity (relative to DMSO controls)
T5 construct: purchased Reaction Biology (HotSpot contract assay)
T5 sequence (P42680 1-631): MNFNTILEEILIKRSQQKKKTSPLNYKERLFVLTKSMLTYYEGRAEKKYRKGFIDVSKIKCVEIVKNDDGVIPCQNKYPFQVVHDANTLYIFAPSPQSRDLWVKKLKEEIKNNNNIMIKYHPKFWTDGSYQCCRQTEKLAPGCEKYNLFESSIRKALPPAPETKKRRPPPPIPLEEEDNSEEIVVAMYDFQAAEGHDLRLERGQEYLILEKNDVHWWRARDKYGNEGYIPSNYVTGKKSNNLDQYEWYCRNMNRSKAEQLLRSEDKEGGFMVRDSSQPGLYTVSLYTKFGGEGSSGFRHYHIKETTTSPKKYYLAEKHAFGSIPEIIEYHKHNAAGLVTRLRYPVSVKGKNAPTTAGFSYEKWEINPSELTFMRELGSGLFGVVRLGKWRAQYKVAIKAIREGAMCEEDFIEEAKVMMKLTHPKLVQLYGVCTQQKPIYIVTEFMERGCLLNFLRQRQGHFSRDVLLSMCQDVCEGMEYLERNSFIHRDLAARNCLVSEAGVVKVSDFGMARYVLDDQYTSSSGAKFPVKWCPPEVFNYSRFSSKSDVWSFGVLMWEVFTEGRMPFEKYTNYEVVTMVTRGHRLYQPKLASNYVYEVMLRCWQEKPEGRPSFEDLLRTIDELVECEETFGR

[6] = target: T6, 382 unique human kinases (Homo sapiens, UniProt P53355); settings: kinase DAPK1, compound 10 uM; for remaining activity at 10 µM: read-out: % Enzyme Activity (relative to DMSO controls)
T6 construct: purchased Reaction Biology (HotSpot contract assay)

[7] = target: T7, 382 unique human kinases (Homo sapiens, UniProt Q8NEV4); settings: MYO3A, 10 uM; for remaining activity at 10 µM: read-out: % Enzyme Activity (relative to DMSO controls)
T7 construct: purchased Reaction Biology (HotSpot contract assay)

[8] = target: T8, 382 unique human kinases (Homo sapiens, UniProt Q8TDX7); settings: NEK7, compound at 10 uM, duplicate values; for remaining activity at 10 µM: read-out: % Enzyme Activity (relative to DMSO controls)
T8 construct: purchased Reaction Biology (HotSpot contract assay)

[9] = target: T9, 382 unique human kinases (Homo sapiens, UniProt Q9Y243, G171R); settings: AKT3 (G171R), 10 uM; for remaining activity at 10 µM: read-out: % Enzyme Activity (relative to DMSO controls)
T9 construct: purchased Reaction Biology (HotSpot contract assay)

[10] = target: T10, 382 unique human kinases (Homo sapiens, UniProt P07948); settings: LYN, [ATP] 15 µM, compound 10 uM; for remaining activity at 10 µM: read-out: % Enzyme Activity (relative to DMSO controls)
T10 construct: purchased Reaction Biology (HotSpot contract assay)

[11] = target: T11, 382 unique human kinases (Homo sapiens, UniProt P21709); settings: EPHA1, [ATP] 20 µM, compound 10 uM; for remaining activity at 10 µM: read-out: % Enzyme Activity (relative to DMSO controls)
T11 construct: purchased Reaction Biology (HotSpot contract assay)
T11 sequence (P21709 26-976): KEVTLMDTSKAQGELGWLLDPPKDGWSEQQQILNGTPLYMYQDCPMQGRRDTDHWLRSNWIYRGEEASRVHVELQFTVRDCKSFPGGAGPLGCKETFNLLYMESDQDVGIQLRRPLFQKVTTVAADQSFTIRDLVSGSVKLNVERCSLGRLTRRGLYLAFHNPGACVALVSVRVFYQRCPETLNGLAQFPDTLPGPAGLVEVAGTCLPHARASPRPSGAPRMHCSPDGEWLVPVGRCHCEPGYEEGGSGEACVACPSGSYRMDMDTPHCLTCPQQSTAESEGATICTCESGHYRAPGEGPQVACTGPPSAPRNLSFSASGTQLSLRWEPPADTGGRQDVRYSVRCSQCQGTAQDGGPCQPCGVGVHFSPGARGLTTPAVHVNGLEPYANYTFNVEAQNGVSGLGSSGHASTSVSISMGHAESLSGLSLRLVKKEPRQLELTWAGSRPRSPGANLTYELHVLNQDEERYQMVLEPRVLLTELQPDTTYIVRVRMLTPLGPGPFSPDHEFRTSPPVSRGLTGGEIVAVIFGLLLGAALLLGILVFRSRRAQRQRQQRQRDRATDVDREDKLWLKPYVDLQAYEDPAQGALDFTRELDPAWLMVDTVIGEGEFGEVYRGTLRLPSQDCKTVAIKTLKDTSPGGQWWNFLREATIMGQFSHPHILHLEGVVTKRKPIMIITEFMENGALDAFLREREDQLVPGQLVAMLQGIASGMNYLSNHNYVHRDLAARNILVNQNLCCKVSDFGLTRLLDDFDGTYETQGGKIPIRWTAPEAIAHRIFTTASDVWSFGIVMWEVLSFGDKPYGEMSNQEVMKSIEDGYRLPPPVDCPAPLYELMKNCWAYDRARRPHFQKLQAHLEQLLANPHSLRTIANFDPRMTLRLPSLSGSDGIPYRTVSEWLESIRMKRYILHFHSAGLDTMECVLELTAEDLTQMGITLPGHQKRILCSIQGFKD

[12] = target: T12, 382 unique human kinases (Homo sapiens, UniProt P54756); settings: EPHA5, [ATP] 30 µM, compound 10 uM; for remaining activity at 10 µM: read-out: % Enzyme Activity (relative to DMSO controls)
T12 construct: purchased Reaction Biology (HotSpot contract assay)

[13] = target: T13, 382 unique human kinases (Homo sapiens, UniProt P78368); settings: CK1g2, 10 uM; for remaining activity at 10 µM: read-out: % Enzyme Activity (relative to DMSO controls)
T13 construct: purchased Reaction Biology (HotSpot contract assay)

[14] = target: T14, 382 unique human kinases (Homo sapiens, UniProt P78527); settings: DNA-PK, 10 uM; for remaining activity at 10 µM: read-out: % Enzyme Activity (relative to DMSO controls)
T14 construct: purchased Reaction Biology (HotSpot contract assay)

[15] = target: T15, 382 unique human kinases (Homo sapiens, UniProt Q9H2X6); settings: HIPK2, 10 uM; for remaining activity at 10 µM: read-out: % Enzyme Activity (relative to DMSO controls)
T15 construct: purchased Reaction Biology (HotSpot contract assay)

[16] = target: T16, 382 unique human kinases (Homo sapiens, UniProt Q9NYL2); settings: ZAK/MLTK, [ATP] 50 µM, compound 10 uM; for remaining activity at 10 µM: read-out: % Enzyme Activity (relative to DMSO controls)
T16 construct: purchased Reaction Biology (HotSpot contract assay)

T6 sequence (P53355 whole entry): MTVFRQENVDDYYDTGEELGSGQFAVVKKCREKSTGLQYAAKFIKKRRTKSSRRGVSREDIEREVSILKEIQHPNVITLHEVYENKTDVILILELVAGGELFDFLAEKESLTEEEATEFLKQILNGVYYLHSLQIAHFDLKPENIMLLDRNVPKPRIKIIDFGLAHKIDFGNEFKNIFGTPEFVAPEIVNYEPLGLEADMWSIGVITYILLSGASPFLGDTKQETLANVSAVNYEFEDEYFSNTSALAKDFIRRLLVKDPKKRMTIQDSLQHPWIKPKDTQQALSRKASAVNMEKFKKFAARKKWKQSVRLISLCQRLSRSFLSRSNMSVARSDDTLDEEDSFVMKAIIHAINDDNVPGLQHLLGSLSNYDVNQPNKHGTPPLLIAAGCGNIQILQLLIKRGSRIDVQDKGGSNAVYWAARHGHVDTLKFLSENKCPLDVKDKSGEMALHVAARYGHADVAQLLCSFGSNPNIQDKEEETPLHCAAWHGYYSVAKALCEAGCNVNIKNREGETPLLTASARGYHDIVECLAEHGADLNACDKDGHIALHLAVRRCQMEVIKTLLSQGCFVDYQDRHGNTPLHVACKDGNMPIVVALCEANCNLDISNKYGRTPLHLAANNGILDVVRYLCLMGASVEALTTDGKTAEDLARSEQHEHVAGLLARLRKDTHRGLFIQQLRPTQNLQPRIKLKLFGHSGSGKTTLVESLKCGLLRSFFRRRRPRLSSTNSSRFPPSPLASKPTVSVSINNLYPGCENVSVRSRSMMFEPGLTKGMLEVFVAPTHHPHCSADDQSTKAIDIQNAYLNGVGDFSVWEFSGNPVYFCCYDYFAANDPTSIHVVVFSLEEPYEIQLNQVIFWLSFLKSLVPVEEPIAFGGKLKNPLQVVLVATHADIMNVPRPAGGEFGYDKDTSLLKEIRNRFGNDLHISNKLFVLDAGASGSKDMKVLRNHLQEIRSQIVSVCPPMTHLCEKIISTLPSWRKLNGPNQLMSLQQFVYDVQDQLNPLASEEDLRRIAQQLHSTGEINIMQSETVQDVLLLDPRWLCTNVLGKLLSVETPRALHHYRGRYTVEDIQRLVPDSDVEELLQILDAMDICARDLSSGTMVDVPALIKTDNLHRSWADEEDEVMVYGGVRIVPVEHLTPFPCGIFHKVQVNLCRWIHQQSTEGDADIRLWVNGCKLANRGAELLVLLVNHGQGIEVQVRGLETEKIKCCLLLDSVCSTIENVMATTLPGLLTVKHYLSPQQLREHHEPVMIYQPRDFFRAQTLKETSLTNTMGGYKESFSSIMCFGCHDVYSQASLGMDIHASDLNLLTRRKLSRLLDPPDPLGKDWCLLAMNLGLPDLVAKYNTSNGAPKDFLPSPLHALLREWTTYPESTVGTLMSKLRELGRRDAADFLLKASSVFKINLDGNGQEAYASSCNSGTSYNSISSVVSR
T15 sequence (Q9H2X6 whole entry): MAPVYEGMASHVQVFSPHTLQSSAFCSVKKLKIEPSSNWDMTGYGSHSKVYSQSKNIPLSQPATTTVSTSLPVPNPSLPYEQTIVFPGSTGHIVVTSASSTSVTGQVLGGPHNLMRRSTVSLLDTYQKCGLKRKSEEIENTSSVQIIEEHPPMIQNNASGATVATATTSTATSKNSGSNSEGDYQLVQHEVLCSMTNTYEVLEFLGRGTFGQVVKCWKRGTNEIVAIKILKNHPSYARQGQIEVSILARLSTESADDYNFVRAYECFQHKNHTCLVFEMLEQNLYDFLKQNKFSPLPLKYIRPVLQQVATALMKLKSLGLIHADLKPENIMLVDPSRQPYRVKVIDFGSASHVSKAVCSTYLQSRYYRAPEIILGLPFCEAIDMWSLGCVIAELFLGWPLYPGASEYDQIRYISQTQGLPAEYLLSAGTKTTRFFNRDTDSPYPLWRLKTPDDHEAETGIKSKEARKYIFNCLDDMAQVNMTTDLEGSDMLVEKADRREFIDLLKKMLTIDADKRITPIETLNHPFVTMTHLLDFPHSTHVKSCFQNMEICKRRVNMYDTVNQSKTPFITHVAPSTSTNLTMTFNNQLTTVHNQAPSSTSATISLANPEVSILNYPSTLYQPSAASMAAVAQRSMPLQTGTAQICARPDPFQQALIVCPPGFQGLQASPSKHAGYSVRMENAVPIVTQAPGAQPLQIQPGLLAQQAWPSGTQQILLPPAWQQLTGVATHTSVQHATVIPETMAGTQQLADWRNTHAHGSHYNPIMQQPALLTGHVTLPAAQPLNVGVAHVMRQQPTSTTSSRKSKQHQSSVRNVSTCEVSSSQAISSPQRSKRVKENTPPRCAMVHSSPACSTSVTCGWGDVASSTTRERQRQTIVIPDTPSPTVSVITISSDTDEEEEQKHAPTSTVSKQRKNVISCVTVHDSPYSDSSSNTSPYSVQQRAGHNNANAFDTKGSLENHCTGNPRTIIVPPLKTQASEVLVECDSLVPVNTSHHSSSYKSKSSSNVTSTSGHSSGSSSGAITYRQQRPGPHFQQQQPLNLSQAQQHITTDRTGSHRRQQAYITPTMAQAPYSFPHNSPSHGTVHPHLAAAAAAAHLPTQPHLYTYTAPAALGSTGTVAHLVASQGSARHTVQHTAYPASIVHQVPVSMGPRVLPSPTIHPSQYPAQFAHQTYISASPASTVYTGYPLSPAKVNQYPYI
T9 sequence (Q9Y243 whole entry G171R): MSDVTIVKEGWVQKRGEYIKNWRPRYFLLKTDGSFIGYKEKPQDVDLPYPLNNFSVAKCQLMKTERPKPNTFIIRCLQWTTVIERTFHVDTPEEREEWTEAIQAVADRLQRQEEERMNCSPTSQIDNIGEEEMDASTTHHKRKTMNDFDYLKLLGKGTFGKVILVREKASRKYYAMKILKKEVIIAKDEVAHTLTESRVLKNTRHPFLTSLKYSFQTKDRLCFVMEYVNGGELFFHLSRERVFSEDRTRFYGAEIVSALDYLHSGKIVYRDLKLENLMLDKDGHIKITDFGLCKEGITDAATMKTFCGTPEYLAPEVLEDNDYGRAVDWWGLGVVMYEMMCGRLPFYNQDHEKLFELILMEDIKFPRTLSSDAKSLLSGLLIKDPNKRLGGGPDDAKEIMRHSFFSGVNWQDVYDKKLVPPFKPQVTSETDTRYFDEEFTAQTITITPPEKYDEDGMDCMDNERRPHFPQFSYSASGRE
T7 sequence (Q8NEV4 whole entry): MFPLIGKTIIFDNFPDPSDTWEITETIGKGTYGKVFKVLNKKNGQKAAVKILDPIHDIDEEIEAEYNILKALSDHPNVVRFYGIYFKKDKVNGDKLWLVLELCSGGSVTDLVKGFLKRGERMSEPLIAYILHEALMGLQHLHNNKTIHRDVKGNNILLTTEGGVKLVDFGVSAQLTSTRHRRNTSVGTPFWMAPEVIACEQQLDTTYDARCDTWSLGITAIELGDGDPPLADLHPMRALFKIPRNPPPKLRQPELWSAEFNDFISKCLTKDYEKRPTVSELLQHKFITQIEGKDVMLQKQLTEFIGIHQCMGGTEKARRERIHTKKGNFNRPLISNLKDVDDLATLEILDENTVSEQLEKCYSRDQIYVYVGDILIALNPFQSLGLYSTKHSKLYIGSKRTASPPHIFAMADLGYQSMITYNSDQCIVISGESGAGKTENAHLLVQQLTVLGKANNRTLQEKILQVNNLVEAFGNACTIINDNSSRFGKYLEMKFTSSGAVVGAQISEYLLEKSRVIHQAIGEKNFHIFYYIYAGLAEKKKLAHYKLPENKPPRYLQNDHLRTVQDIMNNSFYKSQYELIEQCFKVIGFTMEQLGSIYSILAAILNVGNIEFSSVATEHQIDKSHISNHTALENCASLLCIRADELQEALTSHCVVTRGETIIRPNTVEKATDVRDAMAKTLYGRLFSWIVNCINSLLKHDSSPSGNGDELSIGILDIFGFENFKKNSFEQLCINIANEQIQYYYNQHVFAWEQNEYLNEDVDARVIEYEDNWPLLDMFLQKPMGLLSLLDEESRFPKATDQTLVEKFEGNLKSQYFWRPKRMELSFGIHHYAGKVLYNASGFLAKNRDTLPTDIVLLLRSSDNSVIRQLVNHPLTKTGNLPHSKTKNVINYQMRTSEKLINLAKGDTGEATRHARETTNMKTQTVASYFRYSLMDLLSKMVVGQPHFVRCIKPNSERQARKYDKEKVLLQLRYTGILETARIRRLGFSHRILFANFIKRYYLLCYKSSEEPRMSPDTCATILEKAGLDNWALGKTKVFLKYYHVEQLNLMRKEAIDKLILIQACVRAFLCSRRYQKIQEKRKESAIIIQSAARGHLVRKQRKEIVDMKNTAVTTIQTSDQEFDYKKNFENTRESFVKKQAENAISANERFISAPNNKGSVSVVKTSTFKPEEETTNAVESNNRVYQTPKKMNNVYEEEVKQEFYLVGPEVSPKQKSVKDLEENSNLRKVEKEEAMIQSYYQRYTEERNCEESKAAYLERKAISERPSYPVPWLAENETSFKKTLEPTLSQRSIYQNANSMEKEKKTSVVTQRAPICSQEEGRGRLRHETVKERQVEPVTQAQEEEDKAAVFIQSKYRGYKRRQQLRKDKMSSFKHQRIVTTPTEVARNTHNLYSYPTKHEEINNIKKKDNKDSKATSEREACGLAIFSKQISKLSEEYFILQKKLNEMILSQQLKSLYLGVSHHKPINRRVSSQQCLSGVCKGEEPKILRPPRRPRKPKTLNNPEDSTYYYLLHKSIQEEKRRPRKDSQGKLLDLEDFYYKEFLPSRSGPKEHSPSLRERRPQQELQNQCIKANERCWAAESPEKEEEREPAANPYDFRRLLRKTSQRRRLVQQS
T8 sequence (Q8TDX7 whole entry): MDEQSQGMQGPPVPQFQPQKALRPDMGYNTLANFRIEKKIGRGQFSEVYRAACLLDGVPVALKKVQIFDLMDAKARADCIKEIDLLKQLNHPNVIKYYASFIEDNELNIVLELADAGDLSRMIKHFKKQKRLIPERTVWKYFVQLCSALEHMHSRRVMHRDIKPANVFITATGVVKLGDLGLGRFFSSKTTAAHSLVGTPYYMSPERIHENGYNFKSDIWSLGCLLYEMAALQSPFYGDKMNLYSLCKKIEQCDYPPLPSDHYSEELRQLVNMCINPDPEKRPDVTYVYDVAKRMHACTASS

Compound | remaining activity at 10 µM [1] [%] | remaining activity at 10 µM [2] [%] | remaining activity at 10 µM [3] [%] | remaining activity at 10 µM [4] [%] | remaining activity at 10 µM [5] [%] | remaining activity at 10 µM [6] [%] | remaining activity at 10 µM [7] [%] | remaining activity at 10 µM [8] [%] | remaining activity at 10 µM [9] [%] | remaining activity at 10 µM [10] [%] | remaining activity at 10 µM [11] [%] | remaining activity at 10 µM [12] [%] | remaining activity at 10 µM [13] [%] | remaining activity at 10 µM [14] [%] | remaining activity at 10 µM [15] [%] | remaining activity at 10 µM [16] [%] | also measured
CC(C)c1cc(-c2n[nH]c(=O)n2-c2ccc3c(ccn3C)c2)c(O)cc1O [Ganetespib (STA9090)] | 72.8 | 90.9 | 81.4 | 70.3 | 59.7 | 83.3 | 97.3 | 113 | 67.1 |  |  |  |  |  |  |  | 
CC(C)c1cc(-c2n[nH]c(=O)n2-c2ccc3c(ccn3C)c2)c(O)cc1O [Ganetespib] |  |  |  |  |  |  |  |  |  | 21.7 | 60.7 | 55.6 | 110 | 97.8 | 101 | 48.1 | 
CCNC(=O)c1noc(-c2cc(C(C)C)c(O)cc2O)c1-c1ccc(CN2CCOCC2)cc1 [Luminespib (AUY-922)] | 114 | 104 | 85.8 | 74.1 | 97.9 | 83.5 | 76.4 | 116 | 98.6 |  |  |  |  |  |  |  | % Enzyme Activity (relative to DMSO controls) [1]: 112.00%; % Enzyme Activity (relative to DMSO controls) [2]: 100.91%; % Enzyme Activity (relative to DMSO controls) [3]: 85.21%; % Enzyme Activity (relative to DMSO controls) [4]: 73.41%; % Enzyme Activity (relative to DMSO controls) [5]: 96.94%; % Enzyme Activity (relative to DMSO controls) [6]: 82.81%; % Enzyme Activity (relative to DMSO controls) [7]: 74.72%; % Enzyme Activity (relative to DMSO controls) [8]: 116.20%; % Enzyme Activity (relative to DMSO controls) [9]: 93.37%
CCNC(=O)c1noc(-c2cc(C(C)C)c(O)cc2O)c1-c1ccc(CN2CCOCC2)cc1 [Luminespib] |  |  |  |  |  |  |  |  |  | 39.2 | 102 | 79.4 | 99.4 | 91.6 | 105 | 99.3 | % Enzyme Activity (relative to DMSO controls) [10]: 38.08%; % Enzyme Activity (relative to DMSO controls) [11]: 101.19%; % Enzyme Activity (relative to DMSO controls) [12]: 78.40%; % Enzyme Activity (relative to DMSO controls) [13]: 97.43%; % Enzyme Activity (relative to DMSO controls) [14]: 91.21%; % Enzyme Activity (relative to DMSO controls) [15]: 103.59%; % Enzyme Activity (relative to DMSO controls) [16]: 94.35%
